According to ChEMBL document CHEMBL3885881, “DrugMatrix”:

Species: Rattus norvegicus
Test: DrugMatrix - Regimen: Daily Repeat
Type: toxicity, organism-based, Sprague-Dawley
Set-up: regimen Daily Repeat, gender Male, age 6-8 weeks
Settings: in vivo, po, 0 mg/kg, route oral GAVAGE, dose level Control, vehicle 100 % WATER; for ABSOLUTE BASOPHIL / ABSOLUTE EOSINOPHIL / ABSOLUTE LYMPHOCYTE / ABSOLUTE MONOCYTE / ABSOLUTE SEGMENTED NEUTROPHIL / BASOPHIL / EOSINOPHIL / ERYTHROCYTE COUNT / HEMATOCRIT / HEMOGLOBIN / LEUKOCYTE COUNT / LYMPHOCYTE / MEAN CORPUSCULAR HEMOGLOBIN / MEAN CORPUSCULAR HEMOGLOBIN CONCENTRATION / MEAN CORPUSCULAR VOLUME / MONOCYTE / NEUTROPHIL / NUCLEATED RED BLOOD CELLS / PLATELET COUNT: tissue Blood; for ALANINE AMINOTRANSFERASE / ALBUMIN / ALKALINE PHOSPHATASE / ASPARTATE AMINOTRANSFERASE / BLOOD UREA NITROGEN / CARBON DIOXIDE / CHLORIDE / CHOLESTEROL / CREATINE PHOSPHOKINASE / CREATININE / GLUCOSE / LACTATE DEHYDROGENASE / LIPASE / PHOSPHORUS / POTASSIUM / SODIUM / TOTAL BILIRUBIN / TOTAL PROTEIN / URIC ACID: tissue Plasma

`CC[C@H]1OC(=O)[C@H](C)[C@@H](O[C@H]2C[C@@](C)(OC)[C@@H](O)[C@H](C)O2)[C@H](C)[C@@H](O[C@@H]2O[C@H](C)C[C@H](N(C)C)[C@H]2O)[C@](C)(O)C[C@@H](C)CN(C)[C@H](C)[C@@H](O)[C@]1(C)O` [AZITHROMYCIN] was tested, and the “ABSOLUTE BASOPHIL” value (72 h, time 3 day) was 0 CELLS/uL, the “ABSOLUTE EOSINOPHIL” value (72 h, time 3 day) was 33.67 CELLS/uL and the “ABSOLUTE LYMPHOCYTE” value (72 h, time 3 day) was 11257.17 CELLS/uL. For the same molecule, the “ABSOLUTE MONOCYTE” value (72 h, time 3 day) was 72.17 CELLS/uL, the “ABSOLUTE SEGMENTED NEUTROPHIL” value (72 h, time 3 day) was 1220.33 CELLS/uL and the BASOPHIL (72 h, time 3 day) was 0%. The EOSINOPHIL (72 h, time 3 day) was 0.33%, the “ERYTHROCYTE COUNT” value (72 h, time 3 day) was 5 x10E6/uL and the HEMATOCRIT (72 h, time 3 day) was 32.62%. For the same molecule, the HEMOGLOBIN (72 h, time 3 day) was 12.83 G/DL, the “LEUKOCYTE COUNT” value (72 h, time 3 day) was 12.58 x10E3/uL and the LYMPHOCYTE (72 h, time 3 day) was 89%. For the same molecule, the “MEAN CORPUSCULAR HEMOGLOBIN” value (72 h, time 3 day) was 25.67 pg, the “MEAN CORPUSCULAR HEMOGLOBIN CONCENTRATION” value (72 h, time 3 day) was 39.35 G/DL and the “MEAN CORPUSCULAR VOLUME” value (72 h, time 3 day) was 65.23 fL. The MONOCYTE (72 h, time 3 day) was 0.67%, the NEUTROPHIL (72 h, time 3 day) was 10% and the “NUCLEATED RED BLOOD CELLS” value (72 h, time 3 day) was 0 /100WBC. The “PLATELET COUNT” value (72 h, time 3 day) was 1162.5 x10E3/uL, the “ALANINE AMINOTRANSFERASE” value (72 h, time 3 day) was 45.33 u/L and the ALBUMIN (72 h, time 3 day) was 3.95 G/DL. The “ALKALINE PHOSPHATASE” value (72 h, time 3 day) was 356.17 u/L, the “ASPARTATE AMINOTRANSFERASE” value (72 h, time 3 day) was 81 u/L and the “BLOOD UREA NITROGEN” value (72 h, time 3 day) was 11 mg/dL. The “CARBON DIOXIDE” value (72 h, time 3 day) was 29.83 mmol/L, the CHLORIDE (72 h, time 3 day) was 97.8 MEQ/L and the CHOLESTEROL (72 h, time 3 day) was 65.17 mg/dL. For the same molecule, the “CREATINE PHOSPHOKINASE” value (72 h, time 3 day) was 211.33 u/L, the CREATININE (72 h, time 3 day) was 0.11 mg/dL and the GLUCOSE (72 h, time 3 day) was 164.67 mg/dL. For the same molecule, the “LACTATE DEHYDROGENASE” value (72 h, time 3 day) was 143.17 u/L, the LIPASE (72 h, time 3 day) was 10.17 u/L and the PHOSPHORUS (72 h, time 3 day) was 10.88 mg/dL. For the same molecule, the POTASSIUM (72 h, time 3 day) was 6.08 MEQ/L, the SODIUM (72 h, time 3 day) was 141.54 MEQ/L and the “TOTAL BILIRUBIN” value (72 h, time 3 day) was 0.23 mg/dL. The “TOTAL PROTEIN” value (72 h, time 3 day) was 5.65 G/DL, the “URIC ACID” value (72 h, time 3 day) was 1 mg/dL and the “ABSOLUTE BASOPHIL” value (120 h, time 5 day) was 0 CELLS/uL. For the same molecule, the “ABSOLUTE EOSINOPHIL” value (120 h, time 5 day) was 48.67 CELLS/uL, the “ABSOLUTE LYMPHOCYTE” value (120 h, time 5 day) was 9267.83 CELLS/uL and the “ABSOLUTE MONOCYTE” value (120 h, time 5 day) was 194.33 CELLS/uL. The “ABSOLUTE SEGMENTED NEUTROPHIL” value (120 h, time 5 day) was 572.5 CELLS/uL, the BASOPHIL (120 h, time 5 day) was 0% and the EOSINOPHIL (120 h, time 5 day) was 0.33%. The “ERYTHROCYTE COUNT” value (120 h, time 5 day) was 5.41 x10E6/uL, the HEMATOCRIT (120 h, time 5 day) was 36.17% and the HEMOGLOBIN (120 h, time 5 day) was 13.9 G/DL. The “LEUKOCYTE COUNT” value (120 h, time 5 day) was 10.08 x10E3/uL, the LYMPHOCYTE (120 h, time 5 day) was 92.17% and the “MEAN CORPUSCULAR HEMOGLOBIN” value (120 h, time 5 day) was 25.73 pg. The “MEAN CORPUSCULAR HEMOGLOBIN CONCENTRATION” value (120 h, time 5 day) was 38.45 G/DL, the “MEAN CORPUSCULAR VOLUME” value (120 h, time 5 day) was 66.97 fL and the MONOCYTE (120 h, time 5 day) was 1.83%. For the same molecule, the NEUTROPHIL (120 h, time 5 day) was 5.67%, the “NUCLEATED RED BLOOD CELLS” value (120 h, time 5 day) was 0.33 /100WBC and the “PLATELET COUNT” value (120 h, time 5 day) was 1122.33 x10E3/uL. For the same molecule, the “ALANINE AMINOTRANSFERASE” value (120 h, time 5 day) was 52.83 u/L, the ALBUMIN (120 h, time 5 day) was 4.12 G/DL and the “ALKALINE PHOSPHATASE” value (120 h, time 5 day) was 367.33 u/L. The “ASPARTATE AMINOTRANSFERASE” value (120 h, time 5 day) was 88 u/L, the “BLOOD UREA NITROGEN” value (120 h, time 5 day) was 12.67 mg/dL and the “CARBON DIOXIDE” value (120 h, time 5 day) was 33.67 mmol/L. For the same molecule, the CHLORIDE (120 h, time 5 day) was 97 MEQ/L, the CHOLESTEROL (120 h, time 5 day) was 67.5 mg/dL and the “CREATINE PHOSPHOKINASE” value (120 h, time 5 day) was 358.67 u/L. The CREATININE (120 h, time 5 day) was 0.14 mg/dL, the GLUCOSE (120 h, time 5 day) was 152.33 mg/dL and the “LACTATE DEHYDROGENASE” value (120 h, time 5 day) was 180 u/L. It also gave an LIPASE (120 h, time 5 day) of 10.5 u/L, a PHOSPHORUS (120 h, time 5 day) of 10.63 mg/dL and a POTASSIUM (120 h, time 5 day) of 5.99 MEQ/L. For the same molecule, the SODIUM (120 h, time 5 day) was 141.85 MEQ/L, the “TOTAL BILIRUBIN” value (120 h, time 5 day) was 0.2 mg/dL and the “TOTAL PROTEIN” value (120 h, time 5 day) was 6.18 G/DL. For the same molecule, the “URIC ACID” value (120 h, time 5 day) was 0.52 mg/dL.
